Results from ChEMBL document CHEMBL1201862, “PubChem BioAssay data set” (2004).
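Values below derive from 48-hour exposures of cells grown in 96-well plates, with endpoints linearly interpolated between the two concentrations bracketing the appropriate inhibition level. At the GI50, growth is halved.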 The source made the active and inactive calls. Rule as the data show it: active = GI50 up to about 1.1 µM and inactive = higher.

Legend:
Assay in all cases: NCI-60 cell line screen, 48 h
MDA-MB-231 = system: MDA-MB-231
OVCAR-8 = system: OVCAR-8
CAKI-1 = system: CAKI-1
NCI/ADR-RES = system: NCI/ADR-RES
SF-295 = system: SF-295
SK-MEL-5 = system: SK-MEL-5
HOP-92 = system: HOP-92
OVCAR-5 = system: OVCAR-5
OVCAR-4 = system: OVCAR-4
UO-31 = system: UO-31
TK-10 = system: TK-10
MOLT-4 = system: MOLT-4
RPMI-8226 = system: RPMI-8226
CCRF-CEM = system: CCRF-CEM
NCI-H522 = system: NCI-H522
SK-OV-3 = system: SK-OV-3
RXF 393 = system: RXF 393
T47D = system: T47D
M14 = system: M14
MDA-MB-435 = system: MDA-MB-435
SNB-19 = system: SNB-19
SK-MEL-2 = system: SK-MEL-2
HCT-116 = system: HCT-116
SF-268 = system: SF-268
SN12C = system: SN12C
COLO 205 = system: COLO 205
NCI-H226 = system: NCI-H226
ACHN = system: ACHN
A498 = system: A498
SNB-75 = system: SNB-75
DU-145 = system: DU-145
Malme-3M = system: Malme-3M
A549 = system: A549
SR = system: SR
NCI-H460 = system: NCI-H460
HL-60 = system: HL-60
LOX IMVI = system: LOX IMVI
U-251 = system: U-251
UACC-62 = system: UACC-62
SK-MEL-28 = system: SK-MEL-28
EKVX = system: EKVX
SF-539 = system: SF-539
OVCAR-3 = system: OVCAR-3
K562 = system: K562
MDA-N = system: MDA-N
Hs-578T = system: Hs-578T
HOP-62 = system: HOP-62
KM12 = system: KM12
BT-549 = system: BT-549
HT-29 = system: HT-29
SW-620 = system: SW-620
MCF7 = system: MCF7
IGROV-1 = system: IGROV-1
786-0 = system: 786-0
HCT-15 = system: HCT-15
PC-3 = system: PC-3
NCI-H23 = system: NCI-H23
HCC 2998 = system: HCC 2998
UACC-257 = system: UACC-257

SMILES: O=C(NNc1ccccc1)c1ccc(Cl)c(Cl)c1
- GI50 (MDA-MB-231): 35.6 µM (inactive)
- GI50 (OVCAR-8): 21.2 µM (inactive)
- GI50 (CAKI-1): 0.259 µM (active)
- GI50 (NCI/ADR-RES): 5.25 µM (inactive)
- GI50 (SF-295): 0.0676 µM (active)
- GI50 (SK-MEL-5): 1.3 µM (inactive)
- GI50 (HOP-92): > 78.9 µM (inactive)
- GI50 (OVCAR-5): 57 µM (inactive)
- GI50 (OVCAR-4): 16.2 µM (inactive)
- GI50 (UO-31): 2.44 µM (inactive)
- GI50 (TK-10): 20.7 µM (inactive)
- GI50 (MOLT-4): 21.5 µM (inactive)
- GI50 (RPMI-8226): 0.603 µM (active)
- GI50 (CCRF-CEM): 1.12 µM (inactive)
- GI50 (NCI-H522): 0.574 µM (active)
- GI50 (SK-OV-3): 21.1 µM (inactive)
- GI50 (RXF 393): 19.3 µM (inactive)
- GI50 (T47D): 0.918 µM (active)
- GI50 (M14): 0.324 µM (active)
- GI50 (MDA-MB-435): 0.206 µM (active)
- GI50 (SNB-19): 25.8 µM (inactive)
- GI50 (SK-MEL-2): 0.875 µM (active)
- GI50 (HCT-116): 14 µM (inactive)
- GI50 (SF-268): 1.45 µM (inactive)
- GI50 (SN12C): 27.9 µM (inactive)
- GI50 (COLO 205): 0.169 µM (active)
- GI50 (NCI-H226): 29.9 µM (inactive)
- GI50 (ACHN): 11.3 µM (inactive)
- GI50 (A498): 5.2 µM (inactive)
- GI50 (SNB-75): 25.8 µM (inactive)
- GI50 (DU-145): 26.9 µM (inactive)
- GI50 (Malme-3M): 18.6 µM (inactive)
- GI50 (A549): 6.59 µM (inactive)
- GI50 (SR): 20.3 µM (inactive)
- GI50 (NCI-H460): 0.219 µM (active)
- GI50 (HL-60): 0.0569 µM (active)
- GI50 (LOX IMVI): 0.0438 µM (active)
- GI50 (U-251): 18.2 µM (inactive)
- GI50 (UACC-62): 0.0667 µM (active)
- GI50 (SK-MEL-28): > 100 µM (inactive)
- GI50 (EKVX): 4.39 µM (inactive)
- GI50 (SF-539): 0.0718 µM (active)
- GI50 (OVCAR-3): 4.7 µM (inactive)
- GI50 (K562): 0.0281 µM (active)
- GI50 (MDA-N): 0.122 µM (active)
- GI50 (Hs-578T): 28.5 µM (inactive)
- GI50 (HOP-62): 54.6 µM (inactive)
- GI50 (KM12): 0.114 µM (active)
- GI50 (BT-549): 6.81 µM (inactive)
- GI50 (HT-29): 15.7 µM (inactive)
- GI50 (SW-620): 0.108 µM (active)
- GI50 (MCF7): 0.585 µM (active)
- GI50 (IGROV-1): 13.2 µM (inactive)
- GI50 (786-0): 41 µM (inactive)
- GI50 (HCT-15): 15.5 µM
- GI50 (PC-3): 25.2 µM (inactive)
- GI50 (NCI-H23): 34.4 µM (inactive)
- GI50 (HCC 2998): 2.31 µM (inactive)

SMILES: Cc1ccc2c(c1)/C(=N/Nc1ccccc1[N+](=O)[O-])C(=O)N2
- GI50 (MDA-MB-231): 1.61 µM (inactive)
- GI50 (OVCAR-8): 3.45 µM (inactive)
- GI50 (CAKI-1): 3.32 µM (inactive)
- GI50 (NCI/ADR-RES): 3.72 µM (inactive)
- GI50 (SF-295): 14.5 µM (inactive)
- GI50 (SK-MEL-5): 7.35 µM (inactive)
- GI50 (HOP-92): 2.92 µM (inactive)
- GI50 (OVCAR-5): 10.9 µM (inactive)
- GI50 (OVCAR-4): 2.37 µM (inactive)
- GI50 (UO-31): 2.05 µM (inactive)
- GI50 (TK-10): 3.24 µM (inactive)
- GI50 (MOLT-4): > 100 µM (inactive)
- GI50 (RPMI-8226): 6.73 µM (inactive)
- GI50 (CCRF-CEM): 87.1 µM (inactive)
- GI50 (NCI-H522): 2.31 µM (inactive)
- GI50 (SK-OV-3): 4.68 µM (inactive)
- GI50 (RXF 393): 6.52 µM (inactive)
- GI50 (T47D): 2.83 µM (inactive)
- GI50 (M14): 81.5 µM (inactive)
- GI50 (MDA-MB-435): > 100 µM (inactive)
- GI50 (SNB-19): 37.2 µM (inactive)
- GI50 (SK-MEL-2): > 100 µM (inactive)
- GI50 (HCT-116): 3.01 µM (inactive)
- GI50 (SF-268): 3.4 µM (inactive)
- GI50 (SN12C): 3.82 µM (inactive)
- GI50 (COLO 205): 14.6 µM (inactive)
- GI50 (UACC-257): 13.9 µM (inactive)
- GI50 (NCI-H226): 8.41 µM (inactive)
- GI50 (A498): 4.18 µM (inactive)
- GI50 (SNB-75): 5.33 µM (inactive)
- GI50 (DU-145): 25 µM (inactive)
- GI50 (Malme-3M): 3.48 µM (inactive)
- GI50 (A549): 27.9 µM (inactive)
- GI50 (SR): 4.06 µM (inactive)
- GI50 (NCI-H460): 3.89 µM (inactive)
- GI50 (HL-60): > 100 µM (inactive)
- GI50 (LOX IMVI): 4.36 µM (inactive)
- GI50 (U-251): 4.07 µM (inactive)
- GI50 (UACC-62): 35.5 µM (inactive)
- GI50 (SK-MEL-28): > 100 µM (inactive)
- GI50 (EKVX): 2.65 µM (inactive)
- GI50 (SF-539): 2.11 µM (inactive)
- GI50 (OVCAR-3): 4.85 µM (inactive)
- GI50 (K562): 27.9 µM (inactive)
- GI50 (MDA-N): 3.37 µM (inactive)
- GI50 (Hs-578T): 3.93 µM (inactive)
- GI50 (HOP-62): 2.82 µM (inactive)
- GI50 (KM12): 4.19 µM (inactive)
- GI50 (BT-549): 45.8 µM (inactive)
- GI50 (HT-29): 31.6 µM (inactive)
- GI50 (SW-620): 35.3 µM (inactive)
- GI50 (MCF7): 12 µM (inactive)
- GI50 (IGROV-1): 1.68 µM (inactive)
- GI50 (786-0): 2.11 µM (inactive)
- GI50 (HCT-15): > 100 µM
- GI50 (PC-3): 24.8 µM (inactive)
- GI50 (NCI-H23): 7.76 µM (inactive)
- GI50 (HCC 2998): > 100 µM (inactive)

SMILES: CC1CCC2(CC1)NC1=C(CC(C)CC1)C1=C2CC(C)CC1 (configuration not stated)
- GI50 (MDA-MB-231): 20.5 µM (inactive)
- GI50 (OVCAR-8): 23 µM (inactive)
- GI50 (CAKI-1): 22 µM (inactive)
- GI50 (NCI/ADR-RES): > 10 µM (inactive)
- GI50 (SF-295): 18.1 µM (inactive)
- GI50 (SK-MEL-5): 12.1 µM (inactive)
- GI50 (HOP-92): 18.3 µM (inactive)
- GI50 (OVCAR-5): 18.7 µM (inactive)
- GI50 (OVCAR-4): 22.2 µM (inactive)
- GI50 (UO-31): 20.3 µM (inactive)
- GI50 (TK-10): 26.5 µM (inactive)
- GI50 (MOLT-4): 7.14 µM (inactive)
- GI50 (RPMI-8226): 23.3 µM (inactive)
- GI50 (CCRF-CEM): 18.1 µM (inactive)
- GI50 (NCI-H522): 19.3 µM (inactive)
- GI50 (SK-OV-3): 38.8 µM (inactive)
- GI50 (RXF 393): 15.8 µM (inactive)
- GI50 (T47D): 24.3 µM (inactive)
- GI50 (M14): 18.5 µM (inactive)
- GI50 (MDA-MB-435): > 10 µM (inactive)
- GI50 (SNB-19): 23.5 µM (inactive)
- GI50 (SK-MEL-2): 21.8 µM (inactive)
- GI50 (HCT-116): 14.8 µM (inactive)
- GI50 (COLO 205): 20.4 µM (inactive)
- GI50 (UACC-257): 25.3 µM (inactive)
- GI50 (NCI-H226): 16.7 µM (inactive)
- GI50 (ACHN): 23.3 µM (inactive)
- GI50 (A498): 34 µM (inactive)
- GI50 (SNB-75): 19.1 µM (inactive)
- GI50 (DU-145): 38.3 µM (inactive)
- GI50 (Malme-3M): 26.9 µM (inactive)
- GI50 (A549): 36.8 µM (inactive)
- GI50 (SR): 21.8 µM (inactive)
- GI50 (NCI-H460): 23.8 µM (inactive)
- GI50 (HL-60): 14.4 µM (inactive)
- GI50 (LOX IMVI): 18.3 µM (inactive)
- GI50 (U-251): 18.4 µM (inactive)
- GI50 (UACC-62): > 10 µM (inactive)
- GI50 (SK-MEL-28): 17.7 µM (inactive)
- GI50 (EKVX): 39.1 µM (inactive)
- GI50 (SF-539): 22.1 µM (inactive)
- GI50 (OVCAR-3): 17.6 µM (inactive)
- GI50 (K562): 17.2 µM (inactive)
- GI50 (MDA-N): 31.3 µM (inactive)
- GI50 (Hs-578T): 26.9 µM (inactive)
- GI50 (KM12): 18.1 µM (inactive)
- GI50 (BT-549): 19.1 µM (inactive)
- GI50 (HT-29): 16.7 µM (inactive)
- GI50 (SW-620): 18.9 µM (inactive)
- GI50 (MCF7): 17.6 µM (inactive)
- GI50 (IGROV-1): 31.3 µM (inactive)
- GI50 (786-0): 19.5 µM (inactive)
- GI50 (HCT-15): 18.1 µM
- GI50 (PC-3): 16.1 µM (inactive)
- GI50 (NCI-H23): 20.8 µM (inactive)
- GI50 (HCC 2998): 18.6 µM (inactive)
